Reference: the NIST ThermoML archive (doi:10.1016/j.jct.2018.09.027)

Assay: molar heat capacity at constant pressure
Details: 100 kPa, Crystal, DSC

O=c1oc2c(O)c(O)cc3c(=O)oc4c(O)c(O)cc1c4c23 [2,3,7,8-tetrahydroxychromeno[5,4,3-cde]chromene-5,10-dione]
Details | molar heat capacity at constant pressure [J/K/mol]
391.15 K | 417.54
392.15 K | 418.85
393.15 K | 419.15
394.15 K | 420.36
395.15 K | 421.26
396.15 K | 421.57
397.15 K | 422.17
398.15 K | 423.08
399.15 K | 423.98
400.15 K | 424.59
401.15 K | 424.59
402.15 K | 425.19
403.15 K | 426.4
404.15 K | 427.31
405.15 K | 427
406.15 K | 427.31
407.15 K | 427.91
408.15 K | 429.42
409.15 K | 430.03
410.15 K | 430.78
411.15 K | 431.39
412.15 K | 432.44
413.15 K | 432.9
414.15 K | 433.5
415.15 K | 434.56
416.15 K | 435.77
417.15 K | 436.2
418.15 K | 437
419.15 K | 438.2
420.15 K | 439.1
421.15 K | 440.5
422.15 K | 441.2
423.15 K | 442.3
424.15 K | 443.93
425.15 K | 444.5
426.15 K | 444.8
427.15 K | 445.1
428.15 K | 445.9
429.15 K | 446.2
430.15 K | 446.8
431.15 K | 447.3
432.15 K | 448.2
433.15 K | 448.6
434.15 K | 449.4
435.15 K | 450.58
436.15 K | 451.79
437.15 K | 452.39
438.15 K | 452.69
439.15 K | 452.99
440.15 K | 453.9
441.15 K | 454.71
442.15 K | 455.32
443.15 K | 455.41
444.15 K | 455.71
445.15 K | 456.02
446.15 K | 457.53
447.15 K | 457.83
448.15 K | 458.43
449.15 K | 459.04
450.15 K | 459.64
451.15 K | 459.94
452.15 K | 460.2
453.15 K | 460.85
454.15 K | 461.14
455.15 K | 460.85
456.15 K | 461.3
457.15 K | 461.76
458.15 K | 462.11
459.15 K | 462.61
460.15 K | 463.82
461.15 K | 464.57
462.15 K | 465.08
463.15 K | 466.38
464.15 K | 467.05
465.15 K | 468.71
466.15 K | 468.5
467.15 K | 469
468.15 K | 469.5
469.15 K | 470.1
470.15 K | 470.8
471.15 K | 471.2
472.15 K | 471.5
473.15 K | 472.94
474.15 K | 473.85
475.15 K | 474.15
476.15 K | 474.75
477.15 K | 475.05
478.15 K | 476.26
479.15 K | 477.17
480.15 K | 477.47
481.15 K | 478.38
482.15 K | 479.59
483.15 K | 480.19
484.15 K | 480.39
485.15 K | 481.19
486.15 K | 482
487.15 K | 482.31
488.15 K | 482.61
489.15 K | 483.31
490.15 K | 484.21
491.15 K | 485.63
492.15 K | 486.93
493.15 K | 487.54
494.15 K | 488.84
495.15 K | 489.26
496.15 K | 489.26
497.15 K | 489.56
498.15 K | 489.26
499.15 K | 490.77
500.15 K | 491.28
501.15 K | 492.18
502.15 K | 493.28
503.15 K | 494.19
504.15 K | 495
505.15 K | 495.3
506.15 K | 495
507.15 K | 494.7
508.15 K | 495
509.15 K | 495
510.15 K | 495.3
511.15 K | 496
512.15 K | 497.72
513.15 K | 497.82
514.15 K | 498.32
515.15 K | 499.23
516.15 K | 499.5
517.15 K | 500.1
518.15 K | 501.3
519.15 K | 501.8
520.15 K | 502.5
521.15 K | 503.1
522.15 K | 503.6
